According to patent publication US9074014B2 (Ipsen Pharma S.A.S., priority 2008, dated 2015):
Where a SMILES comes first, the peptide text is derived from it. [ ]: non-standard residue; d: D form. Ac6c = NC1(C(=O)O)CCCCC1; Nle = CCCC[C@H](N)C(=O)O; Ac5c = NC1(C(=O)O)CCCC1; Aib = CC(C)(N)C(=O)O

What was measured:
[1] = Human plasma half-life assay; format: in vitro ADME; details: human plasma, 37° C., LC-MS; read-out: Human Plasma T½ (converted)
Experimental: (§1) B. Human and Rat Plasma Half-Life Assay
(§2) 50 μL was removed at various times, like at 0, 1, 2, 3, 4, 8, 24, 32, 48, 56, 72 hours, mixed with 5 μL formic acid and 150 μL acetonitrile in a microcentrifuge tube, vertexed, and centrifuged for 10 minutes at 10K rpm. The supernatant was transferred to an injection vial and analyzed by LC-MS. The LC-MS system consisted of an API4000 mass spectrometer with an ESI probe. Positive ion mode and full scan detection were used. HPLC separation was carried out on a Luna 3μ C8 (2), 2×30 mm column with a gradient from 90% A to 90% B in 10 minutes at a flow rate of 0.3 ml/min. Buffer A was 1% formic acid in water and buffer B was 1% formic acid acetonitrile.

[2] = Rat plasma half-life assay; format: in vitro ADME; details: rat plasma, 37° C., LC-MS; read-out: Rat Plasma T½ (converted)
Experimental: as §1, §2

| SMILES | half-life at 0.1 mg/ml [1] [h] | half-life at 0.1 mg/ml [2] [h] |
| --- | --- | --- |
| CC[C@H](C)[C@H](NC(=O)[C@H](CCCCN)NC(=O)[C@H](CC(=O)O)NC(=O)[C@H](CCSC)NC(=O)[C@H](C)NC(=O)C(C)(C)NC(=O)[C@H](CO)NC(=O)[C@H](Cc1ccc(O)cc1)NC(=O)[C@H](CC(=O)O)NC(=O)[C@H](CO)NC(=O)[C@@H](NC(=O)[C@H](Cc1ccccc1)NC(=O)[C@@H](NC(=O)CNC(=O)[C@H](CCC(=O)O)NC(=O)C(C)(C)NC(=O)[C@@H](N)Cc1ccc(O)cc1)[C@@H](C)O)[C@@H](C)CC)C(=O)N[C@@H](Cc1c[nH]cn1)C(=O)N[C@@H](CCC(N)=O)C(=O)N[C@@H](CCC(N)=O)C(=O)N[C@@H](CC(=O)O)C(=O)N[C@@H](Cc1ccccc1)C(=O)N[C@H](C(=O)N[C@@H](CC(N)=O)C(=O)N[C@@H](Cc1c[nH]c2ccccc12)C(=O)N[C@@H](CC(C)C)C(=O)N[C@@H](CC(C)C)C(=O)N[C@@H](C)C(=O)N[C@@H](CCC(N)=O)C(=O)N[C@@H](CCCCN)C(N)=O)C(C)C [Example 20, (Aib^2, 12)hGIP(1-30)-NH2] (H-Y[Aib]EGTFISDYS[Aib]AMDKIHQQDFVNWLLAQK-NH2; N-terminus assumed) | 25.4 | 42 |
| CCCC[C@H](NC(=O)[C@H](C)NC(=O)[C@@H](NC(=O)[C@H](CO)NC(=O)[C@H](Cc1ccc(O)cc1)NC(=O)[C@H](CC(=O)O)NC(=O)[C@H](CO)NC(=O)C1(NC(=O)[C@H](Cc2ccccc2)NC(=O)[C@@H](NC(=O)CNC(=O)[C@H](CCC(=O)O)NC(=O)C(C)(C)NC(=O)[C@@H](N)Cc2ccc(O)cc2)[C@@H](C)O)CCCCC1)[C@@H](C)CC)C(=O)N[C@@H](CC(=O)O)C(=O)N[C@@H](CCCCN)C(=O)N[C@H](C(=O)N[C@@H](Cc1c[nH]cn1)C(=O)N[C@@H](CCC(N)=O)C(=O)N[C@@H](CCC(N)=O)C(=O)N[C@@H](CC(=O)O)C(=O)N[C@@H](Cc1ccccc1)C(=O)N[C@H](C(=O)N[C@@H](CC(N)=O)C(=O)N[C@@H](Cc1c[nH]c2ccccc12)C(=O)N[C@@H](CC(C)C)C(=O)N[C@@H](CC(C)C)C(=O)N[C@@H](C)C(=O)N[C@@H](CCC(N)=O)C(=O)N[C@@H](CCCCN)C(N)=O)C(C)C)[C@@H](C)CC [Example 31, (Aib^2, A6c^7, Nle^14)hGIP(1-30)-NH2] (H-Y[Aib]EGTF[Ac6c]SDYSIA[Nle]DKIHQQDFVNWLLAQK-NH2; N-terminus assumed) | 36.5 | 31.4 |
| CCCC[C@H](NC(=O)[C@H](C)NC(=O)[C@@H](NC(=O)[C@H](CO)NC(=O)[C@H](Cc1ccc(O)cc1)NC(=O)[C@H](CC(=O)O)NC(=O)[C@H](CO)NC(=O)C1(NC(=O)[C@H](Cc2ccccc2)NC(=O)[C@@H](NC(=O)CNC(=O)[C@H](CCC(=O)O)NC(=O)C(C)(C)NC(=O)[C@@H](N)Cc2ccc(O)cc2)[C@@H](C)O)CCCC1)[C@@H](C)CC)C(=O)N[C@@H](CC(=O)O)C(=O)N[C@@H](CCCCN)C(=O)N[C@H](C(=O)N[C@@H](Cc1c[nH]cn1)C(=O)N[C@@H](CCC(N)=O)C(=O)N[C@@H](CCC(N)=O)C(=O)N[C@@H](CC(=O)O)C(=O)N[C@@H](Cc1ccccc1)C(=O)N[C@H](C(=O)N[C@@H](CC(N)=O)C(=O)N[C@@H](Cc1c[nH]c2ccccc12)C(=O)N[C@@H](CC(C)C)C(=O)N[C@@H](CC(C)C)C(=O)N[C@@H](C)C(=O)N[C@@H](CCC(N)=O)C(=O)N[C@@H](CCCCN)C(N)=O)C(C)C)[C@@H](C)CC [Example 32, (Aib^2, A5c^7, Nle^14)hGIP(1-30)-NH2] (H-Y[Aib]EGTF[Ac5c]SDYSIA[Nle]DKIHQQDFVNWLLAQK-NH2; N-terminus assumed) | > 48 | 28.3 |
| CCCC[C@H](NC(=O)[C@H](C)NC(=O)[C@@H](NC(=O)C(C)(C)NC(=O)[C@H](Cc1ccc(O)cc1)NC(=O)[C@H](CC(=O)O)NC(=O)[C@H](CO)NC(=O)[C@@H](NC(=O)[C@H](Cc1ccccc1)NC(=O)[C@@H](NC(=O)CNC(=O)[C@H](CCC(=O)O)NC(=O)C(C)(C)NC(=O)[C@@H](N)Cc1ccc(O)cc1)[C@@H](C)O)[C@@H](C)CC)[C@@H](C)CC)C(=O)N[C@@H](CC(=O)O)C(=O)N[C@@H](CCCCN)C(=O)N[C@H](C(=O)N[C@@H](Cc1c[nH]cn1)C(=O)N[C@@H](CCC(N)=O)C(=O)N[C@@H](CCC(N)=O)C(=O)N[C@@H](CC(=O)O)C(=O)N[C@@H](Cc1ccccc1)C(=O)N[C@H](C(=O)N[C@@H](CC(N)=O)C(=O)N[C@@H](Cc1c[nH]c2ccccc12)C(=O)N[C@@H](CC(C)C)C(=O)N[C@@H](CC(C)C)C(=O)N[C@@H](C)C(=O)N[C@@H](CCC(N)=O)C(=O)N[C@@H](CCCCN)C(N)=O)C(C)C)[C@@H](C)CC [Example 33, (Aib^2, 11, Nle^14)hGIP(1-30)-NH2] (H-Y[Aib]EGTFISDY[Aib]IA[Nle]DKIHQQDFVNWLLAQK-NH2; N-terminus assumed) | > 48 | 34 |
| CCCC[C@H](NC(=O)[C@H](C)NC(=O)[C@@H](NC(=O)[C@H](CO)NC(=O)[C@H](Cc1ccc(O)cc1)NC(=O)[C@H](CC(=O)O)NC(=O)[C@H](CO)NC(=O)C1(NC(=O)[C@H](Cc2ccccc2)NC(=O)[C@@H](NC(=O)CNC(=O)[C@H](CCC(=O)O)NC(=O)C2(NC(=O)[C@@H](N)Cc3ccc(O)cc3)CCCC2)[C@@H](C)O)CCCC1)[C@@H](C)CC)C(=O)N[C@@H](CC(=O)O)C(=O)N[C@@H](CCCCN)C(=O)N[C@H](C(=O)N[C@@H](Cc1c[nH]cn1)C(=O)N[C@@H](CCC(N)=O)C(=O)N[C@@H](CCC(N)=O)C(=O)N[C@@H](CC(=O)O)C(=O)N[C@@H](Cc1ccccc1)C(=O)N[C@H](C(=O)N[C@@H](CC(N)=O)C(=O)N[C@@H](Cc1c[nH]c2ccccc12)C(=O)N[C@@H](CC(C)C)C(=O)N[C@@H](CC(C)C)C(=O)N[C@@H](C)C(=O)N[C@@H](CCC(N)=O)C(=O)N[C@@H](CCCCN)C(N)=O)C(C)C)[C@@H](C)CC [Example 34, (A5c^2,7, Nle^14)hGIP(1-30)-NH2] (H-Y[Ac5c]EGTF[Ac5c]SDYSIA[Nle]DKIHQQDFVNWLLAQK-NH2; N-terminus assumed) | > 48 | 23 |
| CC[C@H](C)[C@H](NC(=O)[C@H](CO)NC(=O)[C@H](Cc1ccc(O)cc1)NC(=O)[C@H](CC(=O)O)NC(=O)[C@H](CO)NC(=O)C1(NC(=O)[C@H](Cc2ccccc2)NC(=O)[C@@H](NC(=O)CNC(=O)[C@H](CCC(=O)O)NC(=O)C(C)(C)NC(=O)[C@@H](N)Cc2ccc(O)cc2)[C@@H](C)O)CCCC1)C(=O)N[C@@H](C)C(=O)NC1(C(=O)N[C@@H](CC(=O)O)C(=O)N[C@@H](CCCCN)C(=O)N[C@H](C(=O)N[C@@H](Cc2c[nH]cn2)C(=O)N[C@@H](CCC(N)=O)C(=O)N[C@@H](CCC(N)=O)C(=O)N[C@@H](CC(=O)O)C(=O)N[C@@H](Cc2ccccc2)C(=O)N[C@H](C(=O)N[C@@H](CC(N)=O)C(=O)N[C@@H](Cc2c[nH]c3ccccc23)C(=O)N[C@@H](CC(C)C)C(=O)N[C@@H](CC(C)C)C(=O)N[C@@H](C)C(=O)N[C@@H](CCC(N)=O)C(=O)N[C@@H](CCCCN)C(N)=O)C(C)C)[C@@H](C)CC)CCCC1 [Example 35, (Aib^2, A5c^7, 14)hGIP(1-30)-NH2] (H-Y[Aib]EGTF[Ac5c]SDYSIA[Ac5c]DKIHQQDFVNWLLAQK-NH2; N-terminus assumed) | > 48 | 39.4 |
| CCCC[C@H](NC(=O)[C@H](C)NC(=O)[C@@H](NC(=O)[C@H](CO)NC(=O)[C@H](Cc1ccc(O)cc1)NC(=O)[C@H](CC(=O)O)NC(=O)[C@H](CO)NC(=O)C1(NC(=O)[C@H](Cc2ccccc2)NC(=O)[C@@H](NC(=O)CNC(=O)[C@H](CCC(=O)O)NC(=O)C2(NC(=O)[C@@H](N)Cc3ccc(O)cc3)CCCCC2)[C@@H](C)O)CCCCC1)[C@@H](C)CC)C(=O)N[C@@H](CC(=O)O)C(=O)N[C@@H](CCCCN)C(=O)N[C@H](C(=O)N[C@@H](Cc1c[nH]cn1)C(=O)N[C@@H](CCC(N)=O)C(=O)N[C@@H](CCC(N)=O)C(=O)N[C@@H](CC(=O)O)C(=O)N[C@@H](Cc1ccccc1)C(=O)N[C@H](C(=O)N[C@@H](CC(N)=O)C(=O)N[C@@H](Cc1c[nH]c2ccccc12)C(=O)N[C@@H](CC(C)C)C(=O)N[C@@H](CC(C)C)C(=O)N[C@@H](C)C(=O)N[C@@H](CCC(N)=O)C(=O)N[C@@H](CCCCN)C(N)=O)C(C)C)[C@@H](C)CC [Example 36, (A6c^2,7, Nle^14)hGIP(1-30)-NH2] (H-Y[Ac6c]EGTF[Ac6c]SDYSIA[Nle]DKIHQQDFVNWLLAQK-NH2; N-terminus assumed) | 23.7 | 29.2 |
| CC[C@H](C)[C@H](NC(=O)[C@H](CO)NC(=O)[C@H](Cc1ccc(O)cc1)NC(=O)[C@H](CC(=O)O)NC(=O)[C@H](CO)NC(=O)C1(NC(=O)[C@H](Cc2ccccc2)NC(=O)[C@@H](NC(=O)CNC(=O)[C@H](CCC(=O)O)NC(=O)C(C)(C)NC(=O)[C@@H](N)Cc2ccc(O)cc2)[C@@H](C)O)CCCCC1)C(=O)N[C@@H](C)C(=O)NC1(C(=O)N[C@@H](CC(=O)O)C(=O)N[C@@H](CCCCN)C(=O)N[C@H](C(=O)N[C@@H](Cc2c[nH]cn2)C(=O)N[C@@H](CCC(N)=O)C(=O)N[C@@H](CCC(N)=O)C(=O)N[C@@H](CC(=O)O)C(=O)N[C@@H](Cc2ccccc2)C(=O)N[C@H](C(=O)N[C@@H](CC(N)=O)C(=O)N[C@@H](Cc2c[nH]c3ccccc23)C(=O)N[C@@H](CC(C)C)C(=O)N[C@@H](CC(C)C)C(=O)N[C@@H](C)C(=O)N[C@@H](CCC(N)=O)C(=O)N[C@@H](CCCCN)C(N)=O)C(C)C)[C@@H](C)CC)CCCCC1 [Example 39, (Aib^2, A6c^7, 14)hGIP(1-30)-NH2] (H-Y[Aib]EGTF[Ac6c]SDYSIA[Ac6c]DKIHQQDFVNWLLAQK-NH2; N-terminus assumed) | 42.3 | 43.3 |
